This is an account of results in patent US20260199270A1, “METHODS FOR TREATING NEURODEGENERATIVE DISORDERS WITH TRAMIPROSATE” (Alzheon, Inc., priority 2022, published 2026).

Holding throughout (type): in vivo, human
The nature of data set [1]: Phase 2 trial of ALZ-801: safety, ARIA and macrohemorrhages. The settings on record: 1 year of ALZ-801 treatment. The method, then: This is further supported by the early significant decrease in the neuronal injury marker plasma p-tau, which indicates decreased amyloid-induced neuronal stress. See e.g., FIG. 3.
Evaluation of disease modifying effects from phase 2 trial of ALZ-801 (valiltramiprosate) in subjects with early Alzheimer's disease were conducted. The study enrolled 84 patients, with early AD, who carry the APOE4/4 or APOE3/4 genotype and have an MMSE score ranging from 22 to 30 (CDR-G 0.5 or 1). Each patient received 265 mg ALZ-801 twice daily. The average MMSE score of the subjects was 26 (mean age 69 years, 52% female). Subjects were either amyloid PET positive or A+/T+ on CSF assays. CSF criteria were: Ratio of Aβ42/40×10<0.61, and p-tau181>61 pg/ml. CSF was evaluated at 52 weeks, and plasma biomarkers at every visit. […]

Another data set has as its system plasma p-tau181. The experiment in a line: Phase 2 trial of ALZ-801 in early Alzheimer's disease: plasma p-tau181. The settings on record: 52 weeks; 265 mg ALZ-801 orally twice daily; APOE4+ early AD subjects. The method, then:
FIG. 3 illustrates the effect on plasma p-tau181 (change from baseline) following a 52 week treatment with 265 mg ALZ-801 administered orally twice daily to subjects who are APOE4+ and have early AD.
(§1) Evaluation of disease modifying effects from phase 2 trial of ALZ-801 (valiltramiprosate) in subjects with early Alzheimer's disease were conducted. The study enrolled 84 patients, with early AD, who carry the APOE4/4 or APOE3/4 genotype and have an MMSE score ranging from 22 to 30 (CDR-G 0.5 or 1). Each patient received 265 mg ALZ-801 twice daily. The average MMSE score of the subjects was 26 (mean age 69 years, 52% female). Subjects were either amyloid PET positive or A+/T+ on CSF assays. CSF criteria were: Ratio of Aβ42/40×10<0.61, and p-tau181>61 pg/ml. CSF was evaluated at 52 weeks, and plasma biomarkers at every visit.
(§2) These effects were associated with benefits on a composite cognitive outcome that tests memory and learning. […] The HV preservation effects correlate with cognitive benefits (Spearman's coefficient r=0.27, p=0.02).

In a further data set the test system is plasma Aβ40. Kind of data set: Phase 2 trial of ALZ-801 in early Alzheimer's disease: plasma Aβ40. The settings on record: 52 weeks; 265 mg ALZ-801 orally twice daily; APOE4+ early AD subjects. Here is the method:
FIG. 1 illustrates the effect on plasma Abeta40 (change from baseline) following a 52 week treatment with 265 mg ALZ-801 administered orally twice daily to subjects who are APOE4+ and have early AD.
as §1, §2

A short description of data set [2]: Phase 2 trial of ALZ-801: HV atrophy vs matched external control group from ADNI-1. The settings on record: compared to matched external control group from the ADNI-1 observational study; 265 mg twice daily. The method, then:
as §1, §2

The test system of a further data set is plasma Aβ42. The experiment in a line: Phase 2 trial of ALZ-801 in early Alzheimer's disease: plasma Aβ42. The settings on record: 52 weeks; 265 mg ALZ-801 orally twice daily; APOE4+ early AD subjects. The method, then:
FIG. 2 illustrates the effect on plasma Abeta42 (change from baseline) following a 52 week treatment with 265 mg ALZ-801 administered orally twice daily to subjects who are APOE4+ and have early AD.
as §1, §2

Entries after “also recorded” stand apart in the source; their conditions may differ.

In the case of `CC(C)[C@H](N)C(=O)NCCCS(=O)(=O)O` [ALZ-801, valyl-3-amino-1-propanesulfonic acid], in data set [1], the “events of vasogenic edema / amyloid-related imaging abnormalities (ARIA-E; b52: ARIA-E or ARIA-H)” value is listed as “no events” and the “macrohemorrhages (bleeds larger than 1 cm in diameter)” value was “no events; also recorded: no macro-hemorrhages”. For the same compound, the “reduction of plasma p-tau compared to baseline” value in the data set on plasma p-tau181 came to 41%. The “reduction of plasma Aβ40 compared to baseline” value with plasma Aβ40 is recorded as ~ 5%. Also, in data set [2], the “reduction of HV atrophy” value is recorded as 19-23%. Further, the “reduction of plasma Aβ42 compared to baseline” value with plasma Aβ42 is listed as ~ 5%.
